Results published in US5880076A, “Compositions comprising glycacarbamate and glycaurea compounds” (Lever Brothers Company, Division of Conopco, Inc., priority 1997, dated 1999).

Experiments:
[1] = Water Solubility and Krafft Point (0.1% solution in water, 40° C.)
Text: The temperature at which a surfactant forms micelles instead of precipitates is referred to as the Krafft point (Tk), and at or below this temperature the solubility of a surfactant becomes equal to its CMC (numerical value at which micelles are formed).

[2] = Water solubility and turbidity in aqueous personal product and detergent compositions (statement)
[3] = Critical Micelle Concentration (micelle formation); assay type: physicochemical
Text: The critical micelle concentration (CMC) is defined as the concentration at which a surfactant forms micelles in aqueous solution. […] A necessary and sufficient condition for CMC formation and surface tension reduction is the presence of both hydrophilic and hydrophobic functional groups. The hydrophilic portion provides strong interaction between the surfactant at the interface and with the surrounding water phase. The hydrophobic portion provides spontaneous adsorption of the surfactant at the interface and strong interaction with the adjacent air phase. If any of these functions are not performed, then CMC formation and surface tension reduction will not occur. For significant surface activity, a properly balanced hydrophilic and hydrophobic character is essential.

[4] = Surface Tension Reduction; assay type: physicochemical
Text: An important characteristic feature that surfactants have is the tendency for them to absorb at the water/air interface in an oriented manner, thereby altering the interfacial free energy of that surface. The surface free energy per unit area or surface tension (γ), is a measure of this work and may be considered as the minimum amount of work required to bring sufficient surfactant molecules to the surface.

[5] = Flow aids: water uptake and appearance of intimate admixtures; assay type: physicochemical; details: for Appearance (flow) / % H2O Uptake: 25° C., 65% R.H.; for % H2O Uptake: based on builder; for handling and flowing characteristics (in words): intimate admixtures with ODS, SCMOS, CP-5 or CP-7
Text: It is known in the are that certain ingredients are hygroscopic in nature and liquify after exposure to moisture after a few days. […] Samples were removed periodically, weighed and returned to R. H. chamber. Percent water uptake was based on the amound of builder present. % H2 O Uptake=grams of water absorbed/grams of builder×100 Identical mixtures of ODS, SCMOS, CP-5 or CP-7 and methyl α-D-glucose-6-O-monolaurate (c12 Mgluc), dodecyl β-D-glucopyranoside (C12 Gluc), dodecyl β-D-maltoside (C12 Malt), D-glucose or D-sorbitol were also prepared and are used for comparison. When the comparative sugar surfactant of monosacchardie are used, percent water uptake was based on the amount of saccharide present. % H2 O Uptake=grams of water absorbed/grams of saccharide×100

[6] = Viscosity Enhancement/Foam Stabilization (Brookfield Digital Viscometer); details: for Viscosity (Centipoise): 22° C.
[7] = Viscosity Modification of Sodium Lauryl Sulfate prototype detergent compositions; assay type: physicochemical; details: for Appearance (viscosity) / Viscosity Increase: 15.0% sodium lauryl sulfate; for Viscosity Increase: 22° C.
Method: The prototype detergent compositions are as follows:
(§1) Detergent Compositions Comprising Sodium
(§2) Lauryl Sulfate and Glycacarbamate Compounds
N-Dodecyl D-Glucocarbamate
2.0-7.0% Foam Stabilizer/Thickener
(§3) 2.0% Viscosity Cobuilder
(§4) Lauryl Sulfate and Glycaurea Compounds
(§5) The above formulations were prepared by admixing the above ingredients in listed order and heating the mixture to about 80° C. with rapid stirring. The mixture was then cooled to about 40° C., placed in a clear jar and stored at room temperature.
It is well known that the viscosity of a liquid composition comprision of anionic surfactant can be modified by the addition of inorganic salts, such as sodium chloride. However, in the absence of an organic modifier, high levels of salt may be necessary to achieve the required viscosity which may lead to problems of storage at cold temperature or even salting our certain ingrediets. In practice, however, the viscosity of a liquid compositionis modified by the simultaneous addition of thickener and small amounts of inorganic salt (viscosity cobuilder). The combined effect is greater than either one alone. The viscosity of the above prototype detergent compositions comprising various amounts of glycacarbamate/urea compound are as follows: […]

[8] = Pearlescent/Suspending Action in prototype personal product compositions; assay type: physicochemical; details: for Appearance (pearlescence/suspending): 15.0% sodium lauryl sulfate, room temperature, 1 month
Method: The formulations were placed in a clear jar and stored for 1 month. The prototype personal product compositions are as follows:
Personal Product Compositions Comprising Sodium
as §2
N-Tallow D-Glucocarbamate
0.5-4.0% Pearlescent/Suspending
as §3, §4, §5
For a pearlecent personal product formulation to be successful it must have good shelf life and should not separate upon standing.

[9] = Clarity Enhancement of prototype detergent compositions; assay type: physicochemical; details: detergent formulation
Method: The formulations were placed in a clear jar and stored for 1 month. The prototype detergent compositions are as follows:
as §1, §2
N-Coconut D-Glucocarbamate
0.5-4.0% Foam Stabilizer/Thickener
as §4, §5
For a clear detergent formulation to be successful it must have good shelf life and should not become turbid or produce sedimentation upon standing.

## CCCCCCCCCCCCN1C[C@H](O)[C@H]([C@H](O[C@H]2O[C@H](CO)[C@@H](O)[C@H](O)[C@H]2O)[C@H](O)CO)OC1=O [N-Dodecyl D-Maltocarbamate]
[1]; 40° C.
  H2O Solubility at 40° C.: Yes
  Krafft point (Tk): Below Tk
[2]; compared to other known glycacarbamate and glycaurea compounds
  water solubility: enhanced water solubility
[2]; in aqueous personal product and detergent compositions
  turbidity: less turbid
[3]; 40° C.
  CMC at 40° C. (micelle formation): Yes
[4]; 40° C.
  Surface tension reduction (γ) at 40° C.: Yes

## tetrasodium sulfocarboxymethyloxysuccinate [Na4 SCMOS, reference compound]
[5]; 9 days
  Appearance (flow): Sticky Paste
  % H2O Uptake: 38%

## CCCCCCCCCCN(C[C@H](O)[C@@H](O)[C@H](O)[C@H](O)CO)C(N)=O [N-Decyl D-Glucourea]
[1]; 40° C.
  H2O Solubility at 40° C.: Yes
  Krafft point (Tk): Below Tk
[3]; 40° C.
  CMC at 40° C. (micelle formation): Yes
[4]; 40° C.
  Surface tension reduction (γ) at 40° C.: Yes

## CCCCCCCCCCCC(=O)N(CCO)CCO [Lauramide DEA, lauric diethanolamide, reference compound]
[6]; 4.0% thickener
  Foam Stability: Yes
  Viscosity (Centipoise): 2376 Centipoise

## CCCCCCCCCCCCCCCCCCN1C[C@H](O)[C@H]([C@H](O)[C@H](O)CO)OC1=O [N-Octadecyl D-Glucocarbamate]
[1]; 40° C.
  H2O Solubility at 40° C.: No
  Krafft point (Tk): Above Tk
[1]; 40° C., listed as F
  H2O Solubility at 40° C.: insoluble in water
[3]; 40° C.
  CMC at 40° C. (micelle formation): No
[3]; 40° C., listed as F
  CMC at 40° C. (micelle formation): do not form micelles
[4]; 40° C.
  Surface tension reduction (γ) at 40° C.: No
[4]; 40° C., listed as F
  Surface tension reduction (γ) at 40° C.: do not significantly reduce the surface tension of water

## CCCCCCCCN1C[C@H](O)[C@H]([C@H](O)[C@H](O)CO)OC1=O [N-Octyl D-Glucocarbamate]
[1]; 40° C.
  H2O Solubility at 40° C.: Yes
  Krafft point (Tk): Below Tk
[3]; 40° C.
  CMC at 40° C. (micelle formation): Yes
[4]; 40° C.
  Surface tension reduction (γ) at 40° C.: Yes

## CCCCCCCCCCN1C[C@H](O)[C@H]([C@H](O)[C@H](O)CO)OC1=O [N-Decyl D-Glucocarbamate]
[1]; 40° C.
  H2O Solubility at 40° C.: Yes
  Krafft point (Tk): Below Tk
[3]; 40° C.
  CMC at 40° C. (micelle formation): Yes
[4]; 40° C.
  Surface tension reduction (γ) at 40° C.: Yes

## O=C[C@H](O)[C@@H](O)[C@H](O)[C@H](O)CO [D-Glucose, D-glucose, reference compound]
[6]; 4.0% thickener
  Foam Stability: No
  Viscosity (Centipoise): 27 Centipoise
[7]; 2.0% thickener
  Appearance (viscosity): Purable Liquid
  Viscosity Increase: No
[7]; 4.0% thickener
  Appearance (viscosity): Purable Liquid
  Viscosity Increase: No
[7]; 7.0% thickener
  Appearance (viscosity): Purable Liquid
  Viscosity Increase: No

## CCCCCCCCCCCCCCCCN(C[C@H](O)[C@@H](O)[C@H](O)[C@H](O)CO)C(N)=O [N-Hexadecyl D-Glucourea]
[8]; 0.5% opacifier
  Appearance (pearlescence/suspending): Pearlescent/Suspending Action
[8]; 1.0% opacifier
  Appearance (pearlescence/suspending): Pearlescent/Suspending Action
[8]; 2.0% opacifier
  Appearance (pearlescence/suspending): Pearlescent/Suspending Action
[8]; 3.0% opacifier
  Appearance (pearlescence/suspending): Pearlescent/Suspending Action
[8]; 4.0% opacifier
  Appearance (pearlescence/suspending): Pearlescent/Suspending Action
[8]; sodium lauryl sulfate compositions
  pearlescence (in words): excellent pearlescence
[1]; 40° C.
  H2O Solubility at 40° C.: No
  Krafft point (Tk): Above Tk
[3]; 40° C.
  CMC at 40° C. (micelle formation): No
[4]; 40° C.
  Surface tension reduction (γ) at 40° C.: No
[5]
  handling and flowing characteristics (in words): improved the handling and flowing characteristics

## CCCCCCCCCCCCN(C[C@H](O)[C@@H](O)[C@H](O)[C@H](O)CO)C(N)=O [N-Dodecyl D-Glucourea]
[1]; 40° C.
  H2O Solubility at 40° C.: Yes
  Krafft point (Tk): Below Tk
[1]; 40° C., listed as M
  H2O Solubility at 40° C.: insoluble in water
[6]; 4.0% thickener
  Foam Stability: Yes
  viscosity increase from normal viscosity: 99-104 times
  Viscosity (Centipoise): 2295 Centipoise
[6]; 4.0% thickener, listed as N-dodecyl D-glucourea
  Foam Stability: stabilize foam
[6]; compared with lauramide DEA, cocoamide MEA, Neodol 91-6 and D-glucose
  viscosity enhancement and foam stabilization (comparison in words): enhance viscosity and stabilze foam compartively to lauramide diethanolamine (DEA), but better than cocoamide menoethanolamine (MEA), Neodol 91-6 (C9 -C11 alcohol ethoxylate with 6 moles of ethylene oxide) and D-glucose
[7]; 2.0% thickener
  Appearance (viscosity): Slightly Viscous
  Viscosity Increase: Yes
[7]; 4.0% thickener
  Appearance (viscosity): Viscous
  Viscosity Increase: Yes
[7]; 7.0% thickener
  Appearance (viscosity): Very Viscous
  Viscosity Increase: Yes
[7]; compared with D-glucose
  viscosity increase (in words): increases the viscosity of that composition more effectively than D-glucose
[3]; 40° C.
  CMC at 40° C. (micelle formation): Yes
[3]; 40° C., listed as M
  CMC at 40° C. (micelle formation): do not form micelles
[9]
  clarity (in words): clear without sedimentation
[4]; 40° C.
  Surface tension reduction (γ) at 40° C.: Yes
[4]; 40° C., listed as M
  Surface tension reduction (γ) at 40° C.: do not significantly reduce the surface tension of water
[5]
  handling and flowing characteristics (in words): improved the handling and flowing characteristics

## CCCCCCCCCCCCCCN1C[C@H](O)[C@H]([C@H](O)[C@H](O)CO)OC1=O [N-Tetradecyl D-Glucocarbamate]
[1]; with slight heating
  H2O Solubility at 40° C.: Yes
  Krafft point (Tk): Below Tk
[3]; with slight heating
  CMC at 40° C. (micelle formation): Yes
[4]; with slight heating
  Surface tension reduction (γ) at 40° C.: Yes
[5]
  handling and flowing characteristics (in words): improved the handling and flowing characteristics

## O=C([O-])CC(OC(CC(=O)[O-])C(=O)[O-])C(=O)[O-].[Na+].[Na+].[Na+].[Na+] (centres unmarked) [Na4 ODS, tetrasodium oxydisuccinate, reference compound]
[5]; 4 days
  Appearance (flow): Liquid
  % H2O Uptake: 59%

## CCCCCCCCCCCCCCCCN1C[C@H](O)[C@H]([C@H](O)[C@H](O)CO)OC1=O [N-Hexadecyl D-Glucocarbamate]
[1]; 40° C.
  H2O Solubility at 40° C.: No
  Krafft point (Tk): Above Tk
[1]; 40° C., listed as E
  H2O Solubility at 40° C.: insoluble in water
[3]; 40° C.
  CMC at 40° C. (micelle formation): No
[3]; 40° C., listed as E
  CMC at 40° C. (micelle formation): do not form micelles
[4]; 40° C.
  Surface tension reduction (γ) at 40° C.: No
[4]; 40° C., listed as E
  Surface tension reduction (γ) at 40° C.: do not significantly reduce the surface tension of water
